According to patent US5843925A, “Methods for inhibiting angiogenesis, proliferation of endothelial or tumor cells and tumor growth” (American Cyanamid Company, priority 1994, dated 1998):
Where a name gives a salt, the structure may show the parent alone.

What was measured:
Assay type in all cases: cell-based
A2780S = test: Antiproliferative activity in human tumor cell lines (A2780S); conditions: A2780S ovarian tumor cell line
Description: (§1) PROTOCOLS 1, 2, and 3 are described in greater detail hereinbelow. In general, according to PROTOCOLS 1 and 2, the target ABAE and/or Human Tumor cells are exposed to the compound of Formula I for 48 hours. PROTOCOL 3 exposes ABAE cells to the compounds for 4 days. A detailed description of the protocol is as follows:
(§2) The antiproliferative activity of the compounds of Formula I of the present invention is evaluated in a panel comprised of human tumor cell lines and an adult bovine aortic endothelial cell line (ABAE). The human tumor cell lines are from
(§3) Cultures are renewed after 20 passages with cells from a fresh stock of batch-frozen early passage cells. Cell lines are routinely checked for mycoplasma contamination (Genprobe). In a laminar flow hood, cells (1-5×10^4) are plated into 96-well microtiter plates in a volume of 0.1 ml/well with a bulk microtiter dispenser (Denley). […] Compounds are added using a Tomtec dispenser which simultaneously dispenses from one 96-well plate, containing the drug dilutions, to the plates containing the cells. After two days of continuous drug exposure, 50% cold trichloroacetic acid (TCA) is added to 10% final concentration to fix the cells, and after 60 minutes at 4° C., the TCA is aspirated and the plates are washed 5 times with deionized water using a microtiter plate washer. […] A 0.4% solution of the dye, sulforhodamine B, in […] is added to the plates, and the plates are washed 5 times with 1% glacial acetic acid using the automatic plate washed. The bound stain is solubilized with 0.1 ml of 10 mM Tris base. The optical densities are read from an automatic spectrophotometric plate reader (Dynatech) directly to a main frame computer (VAX 8600).
(§4) Positive controls, that include standard chemotherapeutic drugs (i.e., adriamycin, cisplatin, etc.), are included in every experiment.
(§5) Background optical density measurements (complete media-cells, and complete media+drug-cells) are automatically subtracted from the appropriate control and test wells. Mean values and standard errors are determined from duplicate wells. A measure is also made of the optical density at time when the drugs are added. The number of cells after treatment (P), as % of control, is calculated for every concentration of drug, as follows: [formula] wherein: T is optical density measurement for treated cells after 48 hours;
(§6) C is optical density measurement for untreated cells after 48 hours;
(§7) Co is optical density measurement for cells at the time of drug addition.
(§8) IC50 of growth inhibition is calculated from the sets of P values using the RS-1 data package (BBN Software).
(§9) Antiproliferative Activity in Human Tumor Cell Lines
(§10) The antiproliferative activity of the compounds of Formula I is evaluated in the panel comprised of human tumor cell lines as listed in PROTOCOL 1. This assay is a slight modification of PROTOCOL 1. The modifications include:
(§11) 1) each concentration for each compound is tested in a single well;
(§12) 2) compounds are tested at 20, 4, 0.8, 0.16 microgram/ml and additionally in some experiments at 100 and 0.32 microgram/ml;
(§13) 3) samples are pipetted into a 96-well plate for each of the cell lines by a Beckman Biomek 1000 SL robot;
(§14) 4) after fixing with TCA each well is washed with 0.35 ml distilled water twice, not five times;
(§15) 5) after staining with sulforhodamine B each well is washed 3 times, not five times;
(§16) 6) the growth inhibition (I) as % of control, is calculated using the RS-1 data package (BBN Software), for every concentration of drug, as follows: [formula] wherein: T is optical density measurement for treated cells after 48 hours;
(§17) 7) IC50 of growth inhibition is determined graphically from dose response curves, as is known in the art.

A2780/DDP = test: Antiproliferative activity in human tumor cell lines (A2780/DDP); conditions: A2780/DDP ovarian tumor cell line
Description: as §1, §2, §3, §4, §5, §6, §7, §8, §9, §10, §11, §12, §13, §14, §15, §16, §17

MIP = test: Antiproliferative activity in human tumor cell lines (MIP); conditions: MIP colon tumor cell line
Description: as §1, §2
(§18) All cell lines are maintained in log phase in RPMI 1640 media, supplemented with 5% fetal calf serum, penicillin/streptomycin and 2 mM L-glutamine. Cultures are renewed after 20 passages with cells from a fresh stock of batch-frozen early passage cells. Cell lines are routinely checked for mycoplasma contamination (Genprobe). In a laminar flow hood, cells (1-5×10^4) are plated into 96-well microtiter plates in a volume of 0.1 ml/well with a bulk microtiter dispenser (Denley). […] At this concentration, dimethylsulfoxide has no effect on cell growth. Compounds are added using a Tomtec dispenser which simultaneously dispenses from one 96-well plate, containing the drug dilutions, to the plates containing the cells. After two days of continuous drug exposure, 50% cold trichloroacetic acid (TCA) is added to 10% final concentration to fix the cells, and after 60 minutes at 4° C., the TCA is aspirated and the plates are washed 5 times with deionized water using a microtiter plate washer. The number of cells on the plate are quantitated using a protein dye-binding assay (Monks et al., 1991). A 0.4% solution of the dye, sulforhodamine B, in glacial acetic acid is added to the plates, and the plates are washed 5 times with 1% glacial acetic acid using the automatic plate washed. The bound stain is solubilized with 0.1 ml of 10 mM Tris base. The optical densities are read from an automatic spectrophotometric plate reader (Dynatech) directly to a main frame computer (VAX 8600).
as §4, §5, §6, §7, §8, §9, §10, §11, §12, §13, §14, §15
(§19) 6) the growth inhibition (I) as % of control, is calculated using the RS-1 data package (BBN Software), for every concentration of drug, as follows: [formula] wherein: T is optical density measurement for treated cells after 48 hours; […]

CACO2 = test: Antiproliferative activity in human tumor cell lines (CACO2); conditions: Caco-2, CACO2 colon tumor cell line
Description: as §1, §2, §18, §4, §5, §6, §7, §8, §9, §10, §11, §12, §13, §14, §15, §19

HTB 161 = test: Antiproliferative activity in human tumor cell lines (HTB 161)
Description: as §1, §2, §3, §4, §5, §6, §7, §8, §9, §10, §11, §12, §13, §14, §15, §16, §17

SW620 = test: Antiproliferative activity in human tumor cell lines (SW620); conditions: SW-620, SW620 colon tumor cell line
Description: as §1, §2, §18, §4, §5, §6, §7, §8, §9, §10, §11, §12, §13, §14, §15, §19

Human Tumor cell lines = test: Antiproliferative activity in panel of human tumor cell lines (PROTOCOL 1 and PROTOCOL 2); conditions: Homo sapiens; average over the tumor cell lines of Table 3
Description: The antiproliferative activity of the compounds of Formula I in an Adult Bovine Aortic Endothelial (ABAE) cell line and in Human Tumor cells lines is evaluated in three similar assays that measure growth inhibition. The assays are identified as follows:
as §1, §2, §18, §4, §5, §6, §7, §8, §9, §10, §11, §12, §13, §14
5) after staining with sulforhodamine B each well is washed 3 times, not five times; […]

SMILES	IC50 (A2780S)	IC50 (A2780/DDP)	IC50 (MIP)	IC50 (CACO2)	IC50 (HTB 161)	IC50 (SW620)	IC50 (Human Tumor cell lines)
CN(C)CC(=O)Nc1cc(N(C)C)c2c(c1O)C(=O)C1=C(O)[C@]3(O)C(=O)C(C(N)=O)=C(O)[C@@H](N(C)C)C3CC1C2 (stereo partly drawn) [Example 2, [4S-(4a,12aa-1-4,7-Bis(dimethylamino)-9-[[(dimethylamino)acetyl]amino]]-1,4,,4a,5,5a,6,11,12a-octahvdro-3,10,12,12a-tetrahydroxy-1,11-dioxo-2-napththacenecarboxamidedihydrochloride]	6.5 mg/L	7 mg/L	4.6 mg/L	5.1 mg/L	6 mg/L	5.6 mg/L	5.8 mg/L
CCCCCCNCC(=O)Nc1cc(N(C)C)c2c(c1O)C(=O)C1=C(O)[C@]3(O)C(=O)C(C(N)=O)=C(O)[C@@H](N(C)C)C3CC1C2 (stereo partly drawn) [Example 4, [4S-(4α,12aα)]-4,7-Bis(dimethylamino)-9-[(hexylamino)acetyl]amino]-1,4,4a,5,5a,6,11,12a-octahydro-3,10,12,12a-tetrahydroxy-1,11-dioxo-2-naphthacenecarboxamide dihydrochloride]	2.3 mg/L	2.3 mg/L	2.8 mg/L	1.9 mg/L	2 mg/L	2.7 mg/L	2.3 mg/L
CCCCCCCNCC(=O)Nc1cc(N(C)C)c2c(c1O)C(=O)C1=C(O)[C@]3(O)C(=O)C(C(N)=O)=C(O)[C@@H](N(C)C)C3CC1C2 (stereo partly drawn) [Example 5, [4S-(4α,12aα)]-4,7-Bis(dimethylamino)-9-[[(heptylamino)acetyl]amino]-1,4,4a,5,5a,6,11,12a-octahydro-3,10,12,12a-tetrahydroxy-1,11-dioxo-2-naphthacenecarboxamide dihydrochloride]	2.5 mg/L	2.5 mg/L	3.2 mg/L	3.7 mg/L	2.3 mg/L	2.4 mg/L	2.4 mg/L
